Assay results as given in patent publication US11834430B2, “Compounds useful as inhibitors of isoprenylcysteine carboxyl methyltransferase” (AGENCY FOR SCIENCE, TECHNOLOGY AND RESEARCH, priority 2017, dated 2023).
Several values for one entry are separate records, joined by “and”; a condition that tells them apart may be missing. Equal entries are not always repeated.

Target: human ICMT (Homo sapiens (Human), UniProt O60725)
Experiment: ICMT biochemical assay (Methyltransferase-Glo)
Method: Recombinant human ICMT was prepared by infection of Sf9 cells with a recombinant baculovirus containing the entire open reading frame of the human ICMT cDNA.
Cells producing ICMT were harvested 66 hours post-infection. The cells are homogenized and resuspended in 5 mM NaHPO4 (pH 7.0), and a cocktail of protease inhibitors. The membrane was pelleted, after removal of nuclei and debris, at 100,000×g for 1 hour. Membranes were resuspended in 5 mM NaHPO4 (pH 7.0) with 5 mM EDTA at 10-12 mg/ml. The suspension was stored at −80° C. in multiple aliquots.
An ICMT enzymatic assay was developed using Promega's Methyltransferase-GloTMreagents. In the assay, ICMT catalyzes the methylation of the N-Acetyl-S-farnesyl-L-cysteine by transferring a methyl group from SAM to the farnesylated cysteine and further converts the SAM to SAH. The methyltransferase activity is measured based on the amount of SAH produced from the reaction through the use of coupling enzymes that convert the SAH to ATP. The MTase-Glo detection solution then catalyzes the formation of light from ATP.
A final concentration of 2.0 μM and 20 μM of SAM and peptide were added and further incubated for 90 minutes at room temperature before adding the MTase Glo and detection reagent. Reaction signals were detected using microplate readers on luminescent mode (Satire Tecan). The IC50 was determined by nonlinear regression, using GraphPad Prism version, 5.03.

[1] = ICMT membrane extract from Sf-9 cells, 30 min preincubation, 90 min reaction

human ICMT, sequence (O60725 whole entry): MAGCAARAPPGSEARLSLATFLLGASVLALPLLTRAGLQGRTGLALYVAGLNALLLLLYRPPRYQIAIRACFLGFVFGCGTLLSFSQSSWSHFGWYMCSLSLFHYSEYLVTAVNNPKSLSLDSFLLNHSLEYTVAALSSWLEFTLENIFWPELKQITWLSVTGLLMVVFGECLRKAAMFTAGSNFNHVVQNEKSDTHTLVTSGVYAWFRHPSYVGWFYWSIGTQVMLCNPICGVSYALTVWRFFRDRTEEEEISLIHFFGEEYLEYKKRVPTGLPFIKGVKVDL

SMILES	IC50 [1]	IC50 (unit (nM)) [nM]
Cc1nccn1-c1cccc(OCC(C)Oc2ccc(C#N)cc2Cl)c1 (stereo not drawn) [Compound 44, 3-chloro-4-((1-(3-(2-methyl-1H-imidazol-1-yl)phenoxy)propan-2-yl)oxy)benzonitrile]	780 nM	–
COc1cc(C#N)ccc1O[C@H](C)COc1cccc(-c2ccnn2C)c1 [Compound 48, (R)-3-methoxy-4-((1-(3-(1-methyl-1H-pyrazol-5-yl)phenoxy)propan-2-yl)oxy)benzonitrile]	0.64 nM	–
Cc1cc(C#N)ccc1O[C@@H](C)COc1cccc(-n2ccnc2C2CC2)c1 [Compound 49, (S)-4-((1-(3-(2-cyclopropyl-1H-imidazol-1-yl)phenoxy)propan-2-yl)oxy)-3-methylbenzonitrile]	0.3 nM	–
N#Cc1ccc(OCCOc2cccc(-n3ccnc3C3CC3)c2)c(N)c1 [Compound 52, 3-amino-4-(2-(3-(2-cyclopropyl-1H-imidazol-1-yl)phenoxy)ethoxy)benzonitrile]	3.6 nM	–
Cn1nccc1-c1cccc(OCCOc2ccc(F)cc2C#N)c1 [Compound 54, 5-fluoro-2-(2-(3-(1-methyl-1H-pyrazol-5-yl)phenoxy)ethoxy)benzonitrile]	32 nM	–
Cn1nccc1-c1cccc(OCCOc2ccc(C#N)cc2)c1 [Compound 57, 4-(2-(3-(1-methyl-1H-pyrazol-5-yl)phenoxy)ethoxy)benzonitrile]	9 nM	–
COc1cc(C#N)ccc1O[C@@H](C)COc1cccc(-c2ccnn2C)c1 [Compound 60, (S)-3-methoxy-4-((1-(3-(1-methyl-1H-pyrazol-5-yl)phenoxy)propan-2-yl)oxy)benzonitrile]	–	0.81
Cc1cc(C#N)ccc1OC(C)COc1cccc(-n2ccnc2C2CC2)c1 (stereo not drawn) [Compound 61, 4-((1-(3-(2-cyclopropyl-1H-imidazol-1-yl)phenoxy)propan-2-yl)oxy)-3-methylbenzonitrile]	–	0.88
N#Cc1ccc(OCCOc2cccc(-n3ccnc3C3CC3)c2)cc1 [Compound 62, 4-(2-(3-(2-cyclopropyl-1H-imidazol-1-yl)phenoxy)ethoxy)benzonitrile]	8.5 nM	–
CC(COc1cccc(-c2ccno2)c1)Oc1ccc(C#N)cc1F (stereo not drawn) [Compound 64, 3-fluoro-4-((1-(3-(isoxazol-5-yl)phenoxy)propan-2-yl)oxy)benzonitrile]	270 nM and 470 nM	–
C[C@H](COc1cccc(-c2ccno2)c1)Oc1ccc(C#N)cc1F [Compound 65, (R)-3-fluoro-4-((1-(3-(isoxazol-5-yl)phenoxy)propan-2-yl)oxy)benzonitrile]	4670 nM and 4390 nM	–
C[C@@H](COc1cccc(-c2ccno2)c1)Oc1ccc(C#N)cc1F [Compound 66, (S)-3-fluoro-4-((1-(3-(isoxazol-5-yl)phenoxy)propan-2-yl)oxy)benzonitrile]	180 nM and 190 nM	–

Further lines, results first:

IC50 [1]	IC50 (unit (nM)) [nM]	SMILES
12 nM	–	Fc1cc(Cl)ccc1OCCOc1cccc(-n2ccnc2C2CC2)c1 [Compound 50, 1-(3-(2-(4-chloro-2-fluorophenoxy)ethoxy)phenyl)-2-cyclopropyl-1H-imidazole]
20 nM	–	C#Cc1ccc(OCCOc2cccc(-n3ccnc3C)c2)c(F)c1 [Compound 51, 1-(3-(2-(4-ethynyl-2-fluorophenoxy)ethoxy)phenyl)-2-methyl-1H-imidazole]
11 nM	–	Cc1nccn1-c1cccc(OC[C@@H](C)Oc2ccc(C#N)cc2Cl)c1 [Compound 55, (R)-3-chloro-4-((1-(3-(2-methyl-1H-imidazol-1-yl)phenoxy)propan-2-yl)oxy)benzonitrile]
0.15 nM	–	Cc1nccn1-c1cccc(OC[C@H](C)Oc2ccc(C#N)cc2Cl)c1 [Compound 56, (S)-3-chloro-4-((1-(3-(2-methyl-1H-imidazol-1-yl)phenoxy)propan-2-yl)oxy)benzonitrile]
60 nM	–	Cc1ccc(OCCOc2cccc(-n3ccnc3C)c2)c(F)c1 [Compound 58, 1-(3-(2-(2-fluoro-4-methylphenoxy)ethoxy)phenyl)-2-methyl-1H-imidazole]
18 nM and 6 nM	–	Cc1nccn1-c1cccc(OC(C)C(C)Oc2ccc(C#N)cc2F)c1 (stereo not drawn) [Compound 63, 3-fluoro-4-(3-(3-(2-methyl-1H-imidazol-1-yl)phenoxy)butan-2-yloxy)benzonitrile]
